Tests used:
[1] = Bulk density of the dried/homogenized Compound batches; assay type: physicochemical; settings: reworked (dried, homogenized) drug substance batch
[2] = Water sorption (dynamic vapor sorption), water-uptake; assay type: physicochemical; settings: 25° C., 90% relative humidity for 6 hours under humid nitrogen purge
Protocol: Water sorption isotherms can be determined using a dynamic vapor sorption system (Advantage, DVS, London, UK). The samples are subjected to 0 to 90% relative humidity (RH) stepwise with a step size of 10% at 25° C. Each sample is equilibrated at each RH step for at least 60 min, and equilibrium is assumed if weight increase is less than 0.1% within one minute, and the maximum duration on each RH is 6 hours. Therefore, each sample is held at a given RH for 1 to 6 hours depending on how fast the equilibrium is reached.

Q: Which “Bulk density” value ([1]; listed as 17104) does the source give for C[C@@H](Oc1ccc(S(C)(=O)=O)cc1C(=O)N1C[C@@H]2C[C@]2(c2cc(C(F)(F)F)on2)C1)C(F)(F)F [Batch 17104] here?
A: The value was 0.23 g/mL.

Q: For C[C@@H](Oc1ccc(S(C)(=O)=O)cc1C(=O)N1C[C@@H]2C[C@]2(c2cc(C(F)(F)F)on2)C1)C(F)(F)F [Batch 1099103], which “Bulk density” value ([1]; listed as 9103) is on record?
A: Its value is 0.15 g/mL.

Q: With C[C@@H](Oc1ccc(S(C)(=O)=O)cc1C(=O)N1C[C@@H]2C[C@]2(c2cc(C(F)(F)F)on2)C1)C(F)(F)F [Batch 1TA] as the molecule, how does the “Bulk density” value ([1]; listed as 1TA) read?
A: Its value is 0.17 g/mL.

Q: For C[C@@H](Oc1ccc(S(C)(=O)=O)cc1C(=O)N1C[C@@H]2C[C@]2(c2cc(C(F)(F)F)on2)C1)C(F)(F)F [Batch 3TB], which “Bulk density” value ([1]; listed as 3TB) is on record?
A: Its value is 0.17 g/mL.

Q: For C[C@@H](Oc1ccc(S(C)(=O)=O)cc1C(=O)N1C[C@@H]2C[C@]2(c2cc(C(F)(F)F)on2)C1)C(F)(F)F [Batch 2TA], which “Bulk density” value ([1]; listed as 2TA) is on record?
A: Its value is 0.17 g/mL.

Q: Which “Bulk density” value ([1]; listed as 17102) does the source give for C[C@@H](Oc1ccc(S(C)(=O)=O)cc1C(=O)N1C[C@@H]2C[C@]2(c2cc(C(F)(F)F)on2)C1)C(F)(F)F [Batch 17102] here?
A: The value was 0.35 g/mL.

Q: With C[C@@H](Oc1ccc(S(C)(=O)=O)cc1C(=O)N1C[C@@H]2C[C@]2(c2cc(C(F)(F)F)on2)C1)C(F)(F)F [Batch 4TB] as the molecule, how does the “Bulk density” value ([1]; listed as 4TB) read?
A: The value was 0.17 g/mL.

Q: Which “Bulk density” value ([1]; listed as 9102) does the source give for C[C@@H](Oc1ccc(S(C)(=O)=O)cc1C(=O)N1C[C@@H]2C[C@]2(c2cc(C(F)(F)F)on2)C1)C(F)(F)F [Batch 1099102] here?
A: Its value is 0.15 g/mL.

Q: For C[C@@H](Oc1ccc(S(C)(=O)=O)cc1C(=O)N1C[C@@H]2C[C@]2(c2cc(C(F)(F)F)on2)C1)C(F)(F)F [Batch 18106], which “Bulk density” value ([1]; listed as 18106) is on record?
A: The value was 0.15 g/mL.

Q: Which “Bulk density” value ([1]; listed as 18107) does the source give for C[C@@H](Oc1ccc(S(C)(=O)=O)cc1C(=O)N1C[C@@H]2C[C@]2(c2cc(C(F)(F)F)on2)C1)C(F)(F)F [Batch 18107] here?
A: Its value is 0.14 g/mL.

Q: With C[C@@H](Oc1ccc(S(C)(=O)=O)cc1C(=O)N1C[C@@H]2C[C@]2(c2cc(C(F)(F)F)on2)C1)C(F)(F)F [Batch 1099100] as the molecule, how does the “Bulk density” value ([1]; listed as 9100) read?
A: The value was 0.15 g/mL.

Q: With C[C@@H](Oc1ccc(S(C)(=O)=O)cc1C(=O)N1C[C@@H]2C[C@]2(c2cc(C(F)(F)F)on2)C1)C(F)(F)F [Batch 17103] as the molecule, how does the “Bulk density” value ([1]; listed as 17103) read?
A: Its value is 0.50 g/mL.

Q: For C[C@@H](Oc1ccc(S(C)(=O)=O)cc1C(=O)N1C[C@@H]2C[C@]2(c2cc(C(F)(F)F)on2)C1)C(F)(F)F [Batch 5], which “Bulk density” value ([1]; listed as 5) is on record?
A: The value was 0.14 g/mL.

Q: With C[C@@H](Oc1ccc(S(C)(=O)=O)cc1C(=O)N1C[C@@H]2C[C@]2(c2cc(C(F)(F)F)on2)C1)C(F)(F)F [Batch 1098943] as the molecule, how does the “Bulk density” value ([1]; listed as 8943) read?
A: Its value is 0.14 g/mL.

Q: With C[C@@H](Oc1ccc(S(C)(=O)=O)cc1C(=O)N1C[C@@H]2C[C@]2(c2cc(C(F)(F)F)on2)C1)C(F)(F)F [Batch 6] as the molecule, how does the “Bulk density” value ([1]; listed as 6) read?
A: The value was 0.15 g/mL.

Q: For C[C@@H](Oc1ccc(S(C)(=O)=O)cc1C(=O)N1C[C@@H]2C[C@]2(c2cc(C(F)(F)F)on2)C1)C(F)(F)F [Batch 4TA], which “Bulk density” value ([1]; listed as 4TA) is on record?
A: Its value is 0.22 g/mL.

Q: Which “Bulk density” value ([1]; listed as 18105) does the source give for C[C@@H](Oc1ccc(S(C)(=O)=O)cc1C(=O)N1C[C@@H]2C[C@]2(c2cc(C(F)(F)F)on2)C1)C(F)(F)F [Batch 18105] here?
A: Its value is 0.12 g/mL.

Q: For C[C@@H](Oc1ccc(S(C)(=O)=O)cc1C(=O)N1C[C@@H]2C[C@]2(c2cc(C(F)(F)F)on2)C1)C(F)(F)F [Batch 1098954], which “Bulk density” value ([1]; listed as 8954) is on record?
A: The value was 0.15 g/mL.

Q: Which “Bulk density” value ([1]; listed as 9104) does the source give for C[C@@H](Oc1ccc(S(C)(=O)=O)cc1C(=O)N1C[C@@H]2C[C@]2(c2cc(C(F)(F)F)on2)C1)C(F)(F)F [Batch 1099104] here?
A: The value was 0.15 g/mL.

Q: Which “Bulk density” value ([1]; listed as 9101) does the source give for C[C@@H](Oc1ccc(S(C)(=O)=O)cc1C(=O)N1C[C@@H]2C[C@]2(c2cc(C(F)(F)F)on2)C1)C(F)(F)F [Batch 1099101] here?
A: The value was 0.14 g/mL.

Q: For C[C@@H](Oc1ccc(S(C)(=O)=O)cc1C(=O)N1C[C@@H]2C[C@]2(c2cc(C(F)(F)F)on2)C1)C(F)(F)F [polymorph II, [5-(methylsulfonyl)-2-{[(2R)-1,1,1-trifluoropropan-2-yl]oxy}phenyl]{(1R,5R)-1-[5-(trifluoromethyl)-1,2-oxazol-3-yl]-3-azabicyclo[3.1.0]hex-3-yl}methanone], which Water-uptake [2] is on record?
A: Its Water-uptake is “about 0.04%”.

Q: With C[C@@H](Oc1ccc(S(C)(=O)=O)cc1C(=O)N1C[C@@H]2C[C@]2(c2cc(C(F)(F)F)on2)C1)C(F)(F)F [Batch 1098955] as the molecule, how does the “Bulk density” value ([1]; listed as 8955) read?
A: The value was 0.15 g/mL.

Q: Which Water-uptake [2] does the source give for C[C@@H](Oc1ccc(S(C)(=O)=O)cc1C(=O)N1C[C@@H]2C[C@]2(c2cc(C(F)(F)F)on2)C1)C(F)(F)F [amorphous form, [5-(methylsulfonyl)-2-{[(2R)-1,1,1-trifluoropropan-2-yl]oxy}phenyl]{(1R,5R)-1-[5-(trifluoromethyl)-1,2-oxazol-3-yl]-3-azabicyclo[3.1.0]hex-3-yl}methanone] here?
A: Its Water-uptake is 1.4%.

Q: Which “Bulk density” value ([1]; listed as 1TB) does the source give for C[C@@H](Oc1ccc(S(C)(=O)=O)cc1C(=O)N1C[C@@H]2C[C@]2(c2cc(C(F)(F)F)on2)C1)C(F)(F)F [Batch 1TB] here?
A: The value was 0.16 g/mL.

Q: For C[C@@H](Oc1ccc(S(C)(=O)=O)cc1C(=O)N1C[C@@H]2C[C@]2(c2cc(C(F)(F)F)on2)C1)C(F)(F)F [Batch 1098942], which “Bulk density” value ([1]; listed as 8942) is on record?
A: Its value is 0.16 g/mL.

Q: With C[C@@H](Oc1ccc(S(C)(=O)=O)cc1C(=O)N1C[C@@H]2C[C@]2(c2cc(C(F)(F)F)on2)C1)C(F)(F)F [Batch 3TA] as the molecule, how does the “Bulk density” value ([1]; listed as 3TA) read?
A: Its value is 0.18 g/mL.

Q: For C[C@@H](Oc1ccc(S(C)(=O)=O)cc1C(=O)N1C[C@@H]2C[C@]2(c2cc(C(F)(F)F)on2)C1)C(F)(F)F [Batch 2TB], which “Bulk density” value ([1]; listed as 2TB) is on record?
A: The value was 0.2 g/mL.

Source: patent US12275722B2, “Process of reworking a crystalline form of a glycine transport inhibitor” (Boehringer Ingelheim International GmbH, priority 2020, dated 2025)
